Assay [1] deals with T1, GPR81 (Homo sapiens, UniProt Q9BXC0). Briefly: GPR81 agonist ligand activity, GTPγS binding assay (species of receptor not given). Format: biochemical. Details: expressed in transfected cells; host or cells: GPR81-expressing cells / membranes (CHO). The conditions noted are these: for GPR81 agonist activity: yes/no; for stimulation of 35S-GTPγS binding in GPR81-expressing cells / cell membranes: concentration not given. (In general: GTPγS resists hydrolysis and so accumulates on activated G proteins.)
Target sequence in this assay (Q9BXC0 whole entry, species assumed): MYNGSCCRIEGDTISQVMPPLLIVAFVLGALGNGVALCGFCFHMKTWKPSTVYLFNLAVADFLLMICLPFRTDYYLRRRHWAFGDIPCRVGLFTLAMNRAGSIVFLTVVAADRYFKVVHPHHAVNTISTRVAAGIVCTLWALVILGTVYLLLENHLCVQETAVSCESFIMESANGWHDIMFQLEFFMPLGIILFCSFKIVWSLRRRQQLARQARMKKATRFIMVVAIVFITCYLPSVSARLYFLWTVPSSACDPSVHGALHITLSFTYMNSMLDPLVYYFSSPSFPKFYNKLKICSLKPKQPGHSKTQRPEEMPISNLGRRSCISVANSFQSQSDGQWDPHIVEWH

Assay [2] addresses T2, HM74A (Homo sapiens, UniProt Q8TDS4).
T2 construct: expressed in transfected cells; host or cells: CHO cells, membranes
In words: 35S-GTPγS binding assay, HM74A-expressing CHO membranes. Format: biochemical.

Assay [3] has as its target T3, HM74 (Homo sapiens, UniProt P49019).
T3 construct: expressed in transfected cells; host or cells: CHO cells, membranes
In words: 35S-GTPγS binding assay, HM74-expressing CHO membranes. Format: biochemical.

Assay [4] in a line: 35S-GTPγS binding assay, control membranes. Format: biochemical, Chinese hamster. The conditions noted are these: negative control.
For assay [5], the target named is T1, GPR81. The conditions noted are these: 5 μM forskolin. An excerpt: A β-galactosidase (β-gal) assay system was also used to characterize the GPR81 activation in SK-N-MC/CRE-β-gal cells stably expressing human GPR81. GPCRs that couple with Gi proteins, upon activation by agonist, inhibit cAMP accumulation, and therefore inhibit forkolin-stimulated β-gal expression. A cell line stably expressing human GPR81 was established from an SK-N-MC/CRE-β-gal cell line, which harbors a β-galactosidase β-gal) gene under the control of a cAMP-responsive element (CRE). SK-N-MC/CRE-β-gal cells were transfected with the above-described human GPR81-pCIneo construct using LipofectAmine as the transfection reagent. Two days after transfection, the cells were split into new culture dishes at different densities and grown under selection of G418 for three weeks. Single isolated clones were isolated and tested for responsiveness to L-lactate stimulation. […] The β-gal activity was assayed as described (Liu et al., Mol. Pharmacol., Vol. 67, pp. 231-240 (2005)).
Target sequence in this assay (Q9BXC0 whole entry): as the sequence (Q9BXC0 whole entry, species assumed) above

In assay [6] the test system is HM74. Briefly: cAMP inhibition-linked β-gal assay, HM74 expressing cells. Format: cell-based.
Assay [7] in a line: cAMP inhibition-linked β-gal assay, control cells. Format: cell-based.
The target in assay [8] is T1, GPR81. In words: 35S-GTPγS binding assay, membranes of CHO cells expressing human GPR81. Format: biochemical. Details: expressed in transfected cells; host or cells: CHO-K1 (transient, pCIneo), membranes.
Target sequence in this assay (Q9BXC0 whole entry): as the sequence (Q9BXC0 whole entry, species assumed) above
Assay [9] addresses T1, GPR81. The settings on record: Tunaru et al., Nat. Med. 2003; cited from earlier work.
Target sequence in this assay (Q9BXC0 whole entry, species assumed): as above
The test system of assay [10] is rat GPR81L. In words: GTPγS binding assay, rat GPR81L. Format: biochemical. The settings on record: FIG. 19. An excerpt:
(§1) The longer polypeptide sequence was termed rat GP[…]; the shorter polypeptide sequence was termed rat GP[…]. […] The forward primer, 5' [NT] ID NO:7), and the reverse primer, [NT] […] The forward primer, [NT] ID NO:9), and reverse primer, [NT]

For assay [11], the system named is rat GPR81S. Briefly: GTPγS binding assay, rat GPR81S. Format: biochemical. The conditions noted are these: FIG. 19.
Text: as §1

Assay [12] addresses T4, mouse GPR81L (Mus musculus, UniProt Q8C131).
T4 construct: expressed in transfected cells; host or cells: CHO-K1 (transient, pCIneo), membranes
T4 sequence (Q8C131 with tags, fused parts or gaps): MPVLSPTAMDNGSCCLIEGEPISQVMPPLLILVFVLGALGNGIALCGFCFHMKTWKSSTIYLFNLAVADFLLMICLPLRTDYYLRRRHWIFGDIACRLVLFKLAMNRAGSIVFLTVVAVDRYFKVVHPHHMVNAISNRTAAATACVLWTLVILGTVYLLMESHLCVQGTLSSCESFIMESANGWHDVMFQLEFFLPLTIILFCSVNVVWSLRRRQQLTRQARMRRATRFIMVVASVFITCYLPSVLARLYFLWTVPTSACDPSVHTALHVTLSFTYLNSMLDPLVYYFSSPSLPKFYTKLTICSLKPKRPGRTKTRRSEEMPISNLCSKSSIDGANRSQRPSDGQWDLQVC
In words: GTPγS binding assay, mouse GPR81L. Format: biochemical. The settings on record: FIG. 19. An excerpt:
(§2) The longer polypeptide sequence was termed mouse GP[…]; the shorter polypeptide sequence was termed mouse GP[…].

For assay [13], the target named is T5, mouse GPR81S (Mus musculus, UniProt Q8C131).
T5 construct: expressed in transfected cells; host or cells: CHO-K1 (transient, pCIneo), membranes
T5 sequence (Q8C131 1-343): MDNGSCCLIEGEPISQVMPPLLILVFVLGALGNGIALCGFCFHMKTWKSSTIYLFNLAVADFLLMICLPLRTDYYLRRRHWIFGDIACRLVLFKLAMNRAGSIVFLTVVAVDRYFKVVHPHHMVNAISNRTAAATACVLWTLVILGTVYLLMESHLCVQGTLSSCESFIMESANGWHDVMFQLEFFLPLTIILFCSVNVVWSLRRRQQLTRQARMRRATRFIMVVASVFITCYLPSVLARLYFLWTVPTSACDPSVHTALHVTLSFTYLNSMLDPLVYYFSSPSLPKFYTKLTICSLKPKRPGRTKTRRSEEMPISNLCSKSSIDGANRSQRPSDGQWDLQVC
Briefly: GTPγS binding assay, mouse GPR81S. Format: biochemical. The conditions noted are these: FIG. 19.
Text: as §2

Assay [14] deals with bovine GPR81. Briefly: GTPγS binding assay, bovine GPR81. Format: biochemical. The conditions noted are these: FIG. 20. The text has this: TAA GTC ACC AAT CC 3′ (SEQ ID NO:12), were designed based on the identified bovine GPR81 coding sequence and were used to amplify the bovine GPR81 coding region using bovine genomic DNA as template.
In assay [15] the test system is dog GPR81. In words: GTPγS binding assay, dog GPR81. The settings on record: FIG. 20. Format: biochemical.
For assay [16], the system named is monkey GPR81. In words: GTPγS binding assay, monkey GPR81. Format: biochemical. The settings on record: FIG. 20. The text has this: The forward primer, 5′ ACTAGAGAATTCGCCACCATGTACAACGGGTCGTGCTGCCGCAT 3′ (SEQ ID NO:15), and the reverse primer, 5′ ATGATAGCGGCCGCTCAGTGCCACTCAACAGTGTGGGGATC 3′ (SEQ ID NO:16), were designed based on the identified monkey GPR81 coding sequence and were used to amplify the monkey GPR81 coding region using monkey genomic DNA as template.

The test system of assay [17] is porcine GPR81. Briefly: GTPγS binding assay, porcine GPR81. Format: biochemical. The conditions noted are these: FIG. 20.

“And” between values parts separate entries of the source, which are not always exact repeats. Equal entries are not always repeated. “Also recorded” adds a separate entry of the source. Structures can show the parent of a compound that is named as a salt. Where two headings read alike, the source gives them in different places.

T3 sequence (P49019 whole entry): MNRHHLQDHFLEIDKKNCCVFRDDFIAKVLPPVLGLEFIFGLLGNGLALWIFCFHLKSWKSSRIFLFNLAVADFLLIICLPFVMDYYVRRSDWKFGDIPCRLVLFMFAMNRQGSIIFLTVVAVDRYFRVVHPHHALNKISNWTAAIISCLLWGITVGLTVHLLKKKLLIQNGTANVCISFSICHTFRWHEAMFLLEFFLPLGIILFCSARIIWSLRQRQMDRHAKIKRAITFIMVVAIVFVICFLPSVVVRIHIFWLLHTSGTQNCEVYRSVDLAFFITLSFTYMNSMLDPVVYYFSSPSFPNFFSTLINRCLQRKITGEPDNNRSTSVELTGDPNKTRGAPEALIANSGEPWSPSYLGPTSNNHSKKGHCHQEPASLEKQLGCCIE
T2 sequence (Q8TDS4 whole entry): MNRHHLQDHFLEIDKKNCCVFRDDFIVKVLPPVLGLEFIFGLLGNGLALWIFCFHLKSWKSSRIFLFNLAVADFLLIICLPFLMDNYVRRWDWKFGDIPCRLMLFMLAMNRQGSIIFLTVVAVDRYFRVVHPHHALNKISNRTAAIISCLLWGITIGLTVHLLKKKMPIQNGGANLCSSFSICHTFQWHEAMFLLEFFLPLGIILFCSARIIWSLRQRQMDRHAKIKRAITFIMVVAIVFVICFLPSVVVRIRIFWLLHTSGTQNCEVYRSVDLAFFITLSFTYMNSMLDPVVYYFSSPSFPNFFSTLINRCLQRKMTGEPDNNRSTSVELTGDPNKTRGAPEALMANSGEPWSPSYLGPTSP

Turning to `O=CC(=O)O` [glyoxylate], in [1], the GPR81 agonist activity entry is “neither acetate, pyruvate, formiate, nor glyoxylate activated GPR81 and no”.

As for `CC(Cl)C(=O)[O-].[Na+]` (centres unmarked) [2-chloropropionic acid, sodium salt], the GPR81 agonist activity result was “showed GPR81-agonist activity” in [1] (listed as 2-chloropropinoate, sodium salt) and “yes” in assay [1] (sodium salt).

For `O=CO` [formiate], in [1], the GPR81 agonist activity result was “neither acetate, pyruvate, formiate, nor glyoxylate activated GPR81 and no”.

On to `O=C(O)C(F)F` [difluoroacetate], for which the GPR81 agonist activity result in assay [1] is “showed GPR81-agonist activity”.

In the case of `O=C(O)C(F)(F)F` [trifluoroacetate (TFA), trifluoroacetate], the GPR81 agonist activity entry in assay [1] is listed as “yes”; in assay [1] (listed as trifluoroacetate), “showed GPR81-agonist activity”.

For the compound `CCC(O)C(=O)O` (stereo not drawn) [α-hydroxybutyrate], the GPR81 agonist activity result in [1] was “yes”.

A word on the EC50: it is the midpoint of the concentration-response curve. For `C[C@H](O)C(=O)O` [L-lactate], in assay [2], the “activation of HM74A-expressing membranes (35S-GTPγS binding)” value is recorded as “did not activate”. Besides, the “activation of HM74-expressing membranes (35S-GTPγS binding)” value in assay [3] is “did not activate”. Besides, the “35S-GTPγS binding stimulation in control cells/membranes not expressing GPR81 or any GPCR” value in assay [4] is on record as “did not activate”. The “inhibition of forskolin-induced β-gal expression in GPR81-expressing cells” value in assay [5] is “inhibits forskolin-induced β-galactosidase expression”. The EC50 was ~3 mM in assay [5] (read-out: EC50, inhibition of forskolin-induced β-gal expression in GPR81-expressing cells); ~5 mM and 5 mM in [8] (CHO membranes, read-out: EC50, activation of human GPR81 (35S-GTPγS binding)). For the same compound, the “inhibition of forskolin-induced β-gal expression in HM74 expressing cells” value in assay [6] is recorded as “did not inhibit”. For the same compound, the “inhibition of forskolin-induced β-gal expression in control cells not expressing a GPCR” value is “did not inhibit” in assay [7] and “not in cells not expressing GPR81” in assay [7] (listed as lactate). Besides, in assay [8] (at 1 mM concentration), the “receptor activation of GPR81” value was “capable of stimulating detectable receptor activation”.

As to `O=C([O-])CO.[Na+]` [glycolic acid, sodium salt], the GPR81 agonist activity entry in assay [1] (listed as glycolate, sodium salt) is recorded as “demonstrated significant GPR81 agonist activity”; in [1] (sodium salt), “yes”.

For the compound `N[C@@H](CCO)C(=O)O` [L-homoserine], the GPR81 agonist activity entry in [1] was “none of glucose, L-homoserine, or any L-amino acids tested activated GPR81 and no”.

For the compound `CC(Cl)C(=O)Cl` (centres unmarked) [2-chloropropinoyl chloride], in assay [1], the GPR81 agonist activity entry is “showed GPR81-agonist activity and yes”.

`CC(C)(O)C(=O)[O-].[Na+]` [sodium hydroxyisobutyrate]: the GPR81 agonist activity entry in [1] is given as “yes”; in assay [1] (listed as hydroxy-iso-butyrate), “demonstrated significant GPR81 agonist activity”.

With `C[C@@H](O)C(=O)O` [D-lactate], in assay [1], the “efficacy as GPR81 agonist (comparison)” value is recorded as “less efficacious”; the GPR81 agonist activity entry is “demonstrated significant GPR81 agonist activity and yes”.

As for `NCCCC(=O)O` [γ-aminobutyric acid (GABA), γ-aminobutyric acid], in [1], the “stimulation of 35S-GTPγS binding in GPR81-expressing cells / cell membranes” value is “did not stimulate” and the GPR81 agonist activity result is recorded as “no”. In addition, the GPR81 agonist activity result in assay [1] (listed as gamma-aminobutyric acid (GABA)) is listed as “did not activate it”.

In the case of `O=C(O)CCCO` [γ-hydroxybutyric acid (GHB), γ-hydroxybutyric acid], the “35S-GTPγS binding stimulation in control cells/membranes not expressing GPR81 or any GPCR” value in assay [4] is “not in the control cells; also recorded: not in cells not expressing GPR81”. In addition, the “stimulation of 35S-GTPγS binding in GPR81-expressing cells” value in [1] (at 1 mM and 5 mM) is recorded as “significantly stimulated”. Besides, in assay [1], the “stimulation of 35S-GTPγS binding in GPR81-expressing cells / cell membranes” value is given as “stimulates” and the GPR81 agonist activity entry is “yes”. In [1] (listed as GHB), the GPR81 agonist activity entry is listed as “activated GPR81”.

For `O=C(O)c1cccnc1` [nicotinic acid], in [5], the “inhibition of forskolin-induced β-gal expression in GPR81-expressing cells” value is recorded as “failed to inhibit; also recorded: not in cells expressing GPR81”. Besides, the “inhibition of forskolin-induced β-gal expression in HM74 expressing cells” value in [6] is “inhibited forskolin-induced β-gal expression”. In [7], the “inhibition of forskolin-induced β-gal expression in control cells not expressing a GPCR” value is “failed to inhibit”. In assay [9], the “activation of GPR81” value is on record as “does not activate”.

With `O=C(O)C(F)(F)Cl` [chlorodifluoroacetate (CDFA), chlorodifluoroacetate], the GPR81 agonist activity entry in assay [1] is reported as “yes”; in assay [1] (listed as chlorodifluoroacetate), “showed GPR81-agonist activity”.

In the case of `O=C(O)C(Br)(Br)Br` [tribromoacetate (TEA), tribromoacetate], the GPR81 agonist activity result in assay [1] was “no”.

For the compound `CC(Cl)(Cl)C(=O)[O-].[Na+]` [2,2-dichloropropionic acid, sodium salt], the GPR81 agonist activity entry in assay [1] is listed as “no”.

For `CC(O)CC(=O)O` (stereo not drawn) [β-hydroxybutyrate], in assay [10], the “activation of rat GPR81L” value is on record as “did not activate”. Also, the “activation of rat GPR81S” value in [11] was “did not activate”. Moreover, in assay [12], the “activation of mouse GPR81L” value is “did not activate”. The “activation of mouse GPR81S” value in assay [13] is recorded as “did not activate”. Besides, in assay [14], the “activation of bovine GPR81” value is given as “did not activate”. Moreover, in [15], the “activation of dog GPR81” value was “did not activate”. Also, the “activation of monkey GPR81” value in assay [16] is “did not activate”. The “activation of porcine GPR81” value in [17] was “did not activate”. Besides, the “activation of human GPR81 (GTPγS binding)” value in assay [8] was “did not activate”. Also, in assay [1], the GPR81 agonist activity result is “no”.

For the compound `CC(=O)O` [acetate], the GPR81 agonist activity entry in assay [1] was “neither acetate, pyruvate, formiate, nor glyoxylate activated GPR81 and no”.

The values above are taken from patent US8148056B2, “Methods of identifying modulators of GPR81 receptors” (Janssen Pharmaceutica NV, priority 2006, dated 2012).
